Measured values published in patent US8846909B2, “Bicyclic heteroaryl kinase inhibitors and methods of use” (University of Rochester, priority 2010, dated 2014).
pIC50: −log10 of the molar value.

Target: T1, MLK3 (Homo sapiens, UniProt Q16584)
T1 construct: purchased Dundee DU8313
Test: Radiometric filter plate MLK3 assay; on MK3 IC50: 2 µM cold ATP (Km)
Assay type: biochemical
Details: not given
Procedure: After a twenty minute incubation, the reactions were washed through filter plates and read on a scintillation counter. Results are shown in Table 10 below, in which +++ indicates ≦0.1 μM, ++ indicates >0.1 μM and ≦1 μM, and + indicates >1 μM.

T1 sequence (Q16584 whole entry): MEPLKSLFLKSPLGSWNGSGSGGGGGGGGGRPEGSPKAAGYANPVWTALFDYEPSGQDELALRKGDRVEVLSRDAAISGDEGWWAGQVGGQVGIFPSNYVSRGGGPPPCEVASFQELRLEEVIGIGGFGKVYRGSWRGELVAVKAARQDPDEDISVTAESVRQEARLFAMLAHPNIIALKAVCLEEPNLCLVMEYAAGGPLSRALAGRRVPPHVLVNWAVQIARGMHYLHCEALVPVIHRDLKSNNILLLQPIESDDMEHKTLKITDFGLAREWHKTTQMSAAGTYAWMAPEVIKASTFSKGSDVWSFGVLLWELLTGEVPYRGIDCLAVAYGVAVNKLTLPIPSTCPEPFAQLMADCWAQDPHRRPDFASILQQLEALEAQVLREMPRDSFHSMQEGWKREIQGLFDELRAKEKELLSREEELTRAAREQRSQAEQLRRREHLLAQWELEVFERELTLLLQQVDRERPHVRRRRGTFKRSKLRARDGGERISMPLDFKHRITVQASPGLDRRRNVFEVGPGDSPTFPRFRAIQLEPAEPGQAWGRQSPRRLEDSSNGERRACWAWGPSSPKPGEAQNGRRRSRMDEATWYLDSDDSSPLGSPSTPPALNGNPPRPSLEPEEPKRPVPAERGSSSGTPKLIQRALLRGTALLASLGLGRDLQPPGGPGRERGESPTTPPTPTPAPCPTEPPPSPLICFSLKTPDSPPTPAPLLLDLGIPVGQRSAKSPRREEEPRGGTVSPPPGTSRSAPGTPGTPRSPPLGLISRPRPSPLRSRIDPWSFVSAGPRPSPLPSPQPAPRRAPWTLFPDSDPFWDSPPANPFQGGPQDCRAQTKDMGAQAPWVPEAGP

| SMILES | pIC50 |
| --- | --- |
| CC(C)OC(=O)N1CCN(Cc2ccc(-c3cnc4[nH]cc(-c5ccc6[nH]ccc6c5)c4c3)cc2)CC1 [Example 185] | 6.00 to 7.00 |

Same assay, conditions: read-out: MK3 IC50

| SMILES | pIC50 |
| --- | --- |
| COc1cc(-c2cnc3[nH]cc(-c4ccc(N(C)C)nc4)c3c2)cc(OC)c1OC [Example 19, N,N-dimethyl-5-(5-(3,4,5-trimethoxyphenyl)-1H-pyrrolo[2,3-b]pyridin-3-yl)pyridin-2-amine] | > 7.00 |
| O=c1[nH]c2ncc(-c3ccc(N4CCOCC4)cc3)nc2n1CC1CC1 [Example 86, 1-(cyclopropylmethyl)-6-(4-morpholinophenyl)-1H-imidazo[4,5-b]pyrazin-2(3H)-one] | < 6.00 |
| O=c1[nH]c2ncc(-c3cc(Cl)cc(Cl)c3)nc2n1CC1CC1 [Example 80, 1-(cyclopropylmethyl)-6-(3,5-dichlorophenyl)-1H-imidazo[4,5-b]pyrazin-2(3H)-one] | < 6.00 |
| COc1cc(-c2cnc3[nH]c(=O)n(-c4ccc5[nH]cnc5c4)c3n2)cc(OC)c1OC [Example 102, 1-(1H-benzo[d]imidazol-5-yl)-6-(3,4,5-trimethoxyphenyl)-1H-imidazo[4,5-b]pyrazin-2(3H)-one] | > 7.00 |
| Nc1ccc(-c2cnc3[nH]c(=O)n(C4CCCC4)c3n2)cn1 [Example 117, 6-(6-aminopyridin-3-yl)-1-cyclopentyl-1H-imidazo[4,5-b]pyrazin-2(3H)-one] | < 6.00 |
| COc1cc(-c2cnc3[nH]c(=O)n(C4CCCC4)c3n2)cc(OC)c1OC [Example 74, 1-cyclopentyl-6-(3,4,5-trimethoxyphenyl)-1H-imidazo[4,5-b]pyrazin-2(3H)-one] | > 7.00 |
| COc1cc(-c2cnc3[nH]c(=O)n(-c4ccc5[nH]ccc5c4)c3n2)ccc1OCCN1CCOCC1 [Example 57, 1-(1H-indol-5-yl)-6-(3-methoxy-4-(2-morpholinoethoxy)phenyl)-1H-imidazo[4,5-b]pyrazin-2(3H)-one] | > 7.00 |
| COc1ccc(-c2cnc3[nH]cc(-c4ccc5[nH]ccc5c4)c3n2)cc1OC [Example 37, 2-(3,4-dimethoxyphenyl)-7-(1H-indol-5-yl)-5H-pyrrolo[3,2-b]pyrazine] | > 7.00 |
| Cc1cc2cc(-n3c(=O)[nH]c4ncc(-c5ccncc5)nc43)ccc2[nH]1 [Example 85, 1-(2-methyl-1H-indol-5-yl)-6-(pyridin-4-yl)-1H-imidazo[4,5-b]pyrazin-2(3H)-one] | < 6.00 |
| COc1cc(-c2cnc3[nH]cc(-c4ccc5[nH]ccc5c4)c3c2)ccc1OCCN(C)C [Example 35, 2-(4-(3-(1H-indol-5-yl)-1H-pyrrolo[2,3-b]pyridin-5-yl)-2-methoxyphenoxy)-N,N-dimethylethanamine] | < 6.00 |
| COc1ccc(-c2cnc3[nH]c(=O)n(-c4ccc5[nH]ccc5c4)c3n2)cc1F [Example 49, 6-(3-fluoro-4-methoxyphenyl)-1-(1H-indol-5-yl)-1H-imidazo[4,5-b]pyrazin-2(3H)-one] | < 6.00 |
| Cn1ccc2cc(-n3c(=O)[nH]c4ncc(-c5ccc(O)cc5)nc43)ccc21 [Example 42, 6-(4-hydroxyphenyl)-1-(1-methyl-1H-indol-5-yl)-1H-imidazo[4,5-b]pyrazin-2(3H)-one] | < 6.00 |
| O=c1[nH]c2ncc(-c3ccc(O)cc3)nc2n1-c1ccc2cn[nH]c2c1 [Example 92, 6-(4-hydroxyphenyl)-1-(1H-indazol-6-yl)-1H-imidazo[4,5-b]pyrazin-2(3H)-one] | < 6.00 |
| COc1cc(-c2cnc3[nH]c(=O)n(-c4ccc5[nH]ccc5c4)c3n2)cc(OC)c1O [Example 62, 6-(4-hydroxy-3,5-dimethoxyphenyl)-1-(1H-indol-5-yl)-1H-imidazo[4,5-b]pyrazin-2(3H)-one] | > 7.00 |
| O=c1[nH]c2ncc(-c3ccncc3)nc2n1C1CCCC1 [Example 77, 1-cyclopentyl-6-(pyridin-4-yl)-1H-imidazo[4,5-b]pyrazin-2(3H)-one] | < 6.00 |
| Nc1ccc(-c2cnc3[nH]cc(-c4ccc(F)c(Cl)c4)c3c2)cn1 [Example 29, 5-(3-(3-chloro-4-fluorophenyl)-1H-pyrrolo[2,3-b]pyridin-5-yl)pyridin-2-amine] | < 6.00 |
| Cc1cc2cc(-n3c(=O)[nH]c4ncc(-c5cc(Cl)cc(Cl)c5)nc43)ccc2[nH]1 [Example 73, 6-(3,5-dichlorophenyl)-1-(2-methyl-1H-indol-5-yl)-1H-imidazo[4,5-b]pyrazin-2(3H)-one] | < 6.00 |
| COc1cc(-c2cnc3[nH]c(=O)n(-c4ccc5[nH]c(C)cc5c4)c3n2)cc(OC)c1OC [Example 72, 1-(2-methyl-1H-indol-5-yl)-6-(3,4,5-trimethoxyphenyl)-1H-imidazo[4,5-b]pyrazin-2(3H)-one] | > 7.00 |
| COc1cc(OC)cc(-c2cnc3[nH]c(=O)n(-c4ccc5[nH]ccc5c4)c3n2)c1 [Example 65, 6-(3,5-dimethoxyphenyl)-1-(1H-indol-5-yl)-1H-imidazo[4,5-b]pyrazin-2(3H)-one] | < 6.00 |
| O=c1[nH]c2ncc(-c3ccncc3)nc2n1-c1ccc2[nH]ccc2c1 [Example 44, 1-(1H-indol-5-yl)-6-(pyridin-4-yl)-1H-imidazo[4,5-b]pyrazin-2(3H)-one] | < 6.00 |
| CN1CCN(c2cc(-c3cnc4[nH]cc(-c5ccc6[nH]ccc6c5)c4c3)ccn2)CC1 [Example 7, 3-(1H-indol-5-yl)-5-(2-(4-methylpiperazin-1-yl)pyridin-4-yl)-1H-pyrrolo[2,3-b]pyridine] | > 7.00 |
| COc1cc(-c2cnc3[nH]c(=O)n(C4CCc5ccccc54)c3n2)cc(OC)c1OC (stereo not shown) [Example 101, 1-(2,3-dihydro-1H-inden-1-yl)-6-(3,4,5-trimethoxyphenyl)-1H-imidazo[4,5-b]pyrazin-2(3H)-one] | < 6.00 |
| COc1cc(-c2cnc3[nH]cc(-c4ccc(C(N)=O)cc4)c3c2)cc(OC)c1OC [Example 25, 4-(5-(3,4,5-trimethoxyphenyl)-1H-pyrrolo[2,3-b]pyridin-3-yl)benzamide] | > 7.00 |

More lines, now with the values ahead:

| pIC50 | SMILES |
| --- | --- |
| > 7.00 | COCCC(=O)N1CCN(Cc2ccc(-c3cnc4[nH]cc(-c5ccc6[nH]ccc6c5)c4c3)cc2)CC1 [Example 192] |
| > 7.00 | O=C1CN(Cc2ccc(-c3cnc4[nH]cc(-c5ccc6[nH]ccc6c5)c4c3)cc2)CCN1 [Example 142, 4-{4-[3-(1H-indol-5-yl)-1H-pyrrolo[2,3-b]pyridin-5-yl]-benzyl}-piperazin-2-one] |
| > 7.00 | O=C(CC1CC1)N1CCN(Cc2ccc(-c3cnc4[nH]cc(-c5ccc6[nH]ccc6c5)c4c3)cc2)CC1 [Example 193] |
| > 7.00 | O=C1CCC(C(=O)N2CCN(Cc3ccc(-c4cnc5[nH]cc(-c6ccc7[nH]ccc7c6)c5c4)cc3)CC2)N1 (stereo not shown) [Example 195] |
| 6.00 to 7.00 | COc1cc(-c2cnc3c(c2)C(CC2CC2)C(=O)N3)cc(OC)c1OC (stereo not shown) [Example 123, 3-(cyclopropylmethyl)-5-(3,4,5-trimethoxyphenyl)-1H-pyrrolo[2,3-b]pyridin-2(3H)-one] |
| < 6.00 | COc1cc(-c2cnc3c(c2)C(=Cc2ccncc2)C(=O)N3)cc(OC)c1OC (single isomer, unassigned) [Example 129, (E)- and (Z)-3-pyridin-4-ylmethylene-5-(3,4,5-trimethoxy-phenyl)-1,3-dihydro-pyrrolo[2,3-b]pyridin-2-one] |
| > 7.00 | CC(=O)N1CCN(Cc2ccc(-c3cnc4[nH]cc(-c5ccc6[nH]ccc6c5)c4c3)cc2)CC1C (stereo not shown) [Example 197, 1-(4-(4-(3-(1H-indol-5-yl)-1H-pyrrolo[2,3-b]pyridin-5-yl)benzyl)-2-methylpiperazin-1-yl)ethanone] |
| 6.00 to 7.00 | COc1cc(-c2cnc3[nH]c(=O)n(-c4ccc5[nH]ccc5c4)c3c2)cc(OC)c1OC [Example 124, 1-(1H-indol-5-yl)-6-(3,4,5-trimethoxyphenyl)-1H-imidazo[4,5-b]pyridin-2(3H)-one] |
| > 7.00 | CC(C)(C)OC(=O)N1CCN(Cc2ccc(-c3cnc4[nH]cc(-c5ccc6[nH]ccc6c5)c4c3)cc2)CC1 [Example 144, 4-{4-[3-(1H-indol-5-yl)-1H-pyrrolo[2,3-b]pyridin-5-yl]-benzyl}-piperazine-1-carboxylic acid tert-butyl ester] |
| > 7.00 | CN1CCN(Cc2cccc(-c3cnc4[nH]cc(-c5ccc(C(N)=O)cc5)c4c3)c2)CC1 [Example 156, 4-{5-[3-(4-methyl-piperazin-1-ylmethyl)-phenyl]-1H-pyrrolo[2,3-b]pyridin-3-yl}-benzamide] |
| > 7.00 | c1cc2cc(-c3c[nH]c4ncc(-c5ccc(CN6CCOCC6)cc5)cc34)ccc2[nH]1 [Example 169, 4-(4-(3-(1H-indol-5-yl)-1H-pyrrolo[2,3-b]pyridin-5-yl)benzyl)morpholine] |
| > 7.00 | COCC(=O)N1CCN(Cc2ccc(-c3cnc4[nH]cc(-c5ccc6[nH]ccc6c5)c4c3)cc2)CC1 [Example 188] |
| > 7.00 | CC(C)(C)OC(=O)N1CCN(C(=O)c2cccc(-c3cnc4[nH]cc(-c5ccc(C(N)=O)cc5)c4c3)c2)CC1 [Example 151, 4-{3-[3-(4-carbamoyl-phenyl)-1H-pyrrolo[2,3-b]pyridin-5-yl]-benzoyl}-piperazine-1-carboxylic acid tert-butyl ester] |
| > 7.00 | CN1CCN(Cc2ccc(-c3cnc4[nH]cc(-c5ccc6ncccc6c5)c4c3)cc2)CC1 [Example 203] |
| < 6.00 | COc1cc(-c2nc3c(nc2Cl)[nH]c(=O)n3CC2CC2)cc(OC)c1OC [Example 119, 5-chloro-1-(cyclopropylmethyl)-6-(3,4,5-trimethoxyphenyl)-1H-imidazo[4,5-b]pyrazin-2(3H)-one] |
| > 7.00 | CC(C)(C)CC(=O)N1CCN(Cc2ccc(-c3cnc4[nH]cc(-c5ccc6[nH]ccc6c5)c4c3)cc2)CC1 [Example 182] |
| > 7.00 | O=C(CCO)N1CCN(Cc2ccc(-c3cnc4[nH]cc(-c5ccc6[nH]ccc6c5)c4c3)cc2)CC1 [Example 191] |
| < 6.00 | COc1cc(-c2cnc3c(c2)C(Cc2ccncc2)C(=O)N3)cc(OC)c1OC (stereo not shown) [Example 136, 3-pyridin-4-ylmethyl-5-(3,4,5-trimethoxy-phenyl)-1,3-dihydro-pyrrolo[2,3-b]pyridin-2-one] |
| < 6.00 | COc1cc(-c2cnc3c(c2)C(Cc2ccc(C(N)=O)cc2)C(=O)N3)cc(OC)c1OC (stereo not shown) [Example 138, 4-[2-oxo-5-(3,4,5-trimethoxy-phenyl)-2,3-dihydro-1H-pyrrolo[2,3-b]pyridin-3-ylmethyl]-benzamide] |
